The results in this text go back to US20240010684A1, “MASP INHIBITORY COMPOUNDS AND USES THEREOF” (BAYER AKTIENGESELLSCHAFT, priority 2020, published 2024).

The target in test [1] is human MASP2 (Homo sapiens (Human), UniProt O00187). Kind of test: Biochemical human MASP2 assay (FRET substrate). To be noted: Average IC50; recombinant human MASP2; read-out: human MASP2 IC50. The text has this:
The MASP1 or MASP2 expression vectors were transfected into the HEK293 (ATCC No. CRL-1573) cell line using Lipofectamine LTX® Reagent (Thermo-Fischer), as described by the manufacturer. The mature form of the recombinant human MASP1 and M[…] were secreted into the culture medium. The MASP1 and M[…] were purified from the conditioned media by affinity chromatography on Ni-NTA Superflow resin (Qiagen) as described by the manufacturer. 2.3 Biochemical Human MASP2 Assay […] The enzymatic reaction was initiated by addition of 25 μl of 60 μM solution of the FRET substrate DABCYL-[…]; […] The microtiter plate was incubated for 60-120 min at the temperature of 32 C. The increase of fluorescence intensity was measured in appropriate fluorescence plate reader (e.g. TECAN Ultra) using excitation wavelength of 340 nm and emission wavelength of 490 nm. IC50 values were calculated from percentage of inhibition of human MASP2 activity as a function of test compound concentration.

In test [2] the target is human MASP1 (Homo sapiens (Human), UniProt P48740). Briefly: Biochemical human MASP1 assay (FRET substrate). To be noted: Average IC50; recombinant human MASP1; read-out: human MASP1 IC50. The text has this: A truncated cDNA sequence of human MASP1 encoding the fragment corresponding to the amino acids 297-699 with a C-terminal His Tag and N-terminal Ig-kappa secretion signal (SEQ ID No: 2) was subcloned into the mammalian expression vector pcDNA3.1 (Invitrogen).
Chain of human MASP1 (P48740 other isoform, or with tags, fused parts or gaps): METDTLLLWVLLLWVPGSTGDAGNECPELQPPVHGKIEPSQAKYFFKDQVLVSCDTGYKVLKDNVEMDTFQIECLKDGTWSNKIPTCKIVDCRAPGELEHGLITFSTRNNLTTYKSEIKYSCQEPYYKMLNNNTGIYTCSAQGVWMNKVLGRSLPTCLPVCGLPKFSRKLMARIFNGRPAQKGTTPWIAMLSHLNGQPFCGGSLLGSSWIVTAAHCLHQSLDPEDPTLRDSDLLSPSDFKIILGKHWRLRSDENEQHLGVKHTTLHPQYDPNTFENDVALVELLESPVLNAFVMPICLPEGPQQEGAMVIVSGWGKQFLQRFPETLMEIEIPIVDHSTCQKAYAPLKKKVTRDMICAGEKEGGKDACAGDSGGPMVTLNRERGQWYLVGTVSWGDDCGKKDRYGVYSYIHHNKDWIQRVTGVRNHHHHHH
The MASP1 or MASP2 expression vectors were transfected into the HEK293 (ATCC No. CRL-1573) cell line using Lipofectamine LTX® Reagent (Thermo-Fischer), as described by the manufacturer. The mature form of the recombinant human MASP1 and MASP2 proteases were secreted into the culture medium. The MASP1 and MASP2 proteins were purified from the conditioned media by affinity chromatography on Ni-NTA Superflow resin (Qiagen) as described by the manufacturer.
2.2 Biochemical Human MASP1 Assay
Recombinant human MASP1 enzyme produced in the HEK 293 cells was diluted in the reaction buffer (50 mM HEPES pH 8,0; 100 mM NaCl; 0,01% CHAPS; 0.5 mM Gluthathione) to the concentration of 20 nM and 25 μl was transferred into each single well of 384-well white microtiter plate (Greiner Bio One 781075). 1 μl of the inhibitor compound solution (dissolved in DMSO, at the corresponding concentration) or pure DMSO as a control was added to the same wells. The enzymatic reaction was initiated by addition of 25 μl of 20 μM solution of the FRET substrate ABZ-[…]-Lys (Dnp)-NH2; (ABZ-2-aminobenzoyl; DNP 2,4-dinitrophenyl; custom synthesis by Jerini Peptide Technologies, Berlin) in the reaction buffer. The microtiter plate was incubated for 60-120 min at the temperature of 32 C. The increase of fluorescence intensity was measured in appropriate fluorescence plate reader (e.g. TECAN Ultra) using excitation wavelength of 320 nm and emission wavelength of 420 nm. IC50 values were calculated from percentage of inhibition of human MASP1 activity as a function of test compound concentration.

pIC50: −log10 of the molar value. *1 amine or outer side, *2 acyl side, *3 side chain or, on linkers, in order; H or OH if unused. Where a SMILES comes first, the peptide text is derived from it. Bridges are numbered along the chain shown (N, C = ends). [ ]: non-standard residue; d: D form. X6 = O=C(CCC(=O)[*:1])NCCCOCCOCCOCCCN[*:2]; Oic = O=C(O)[C@@H]1C[C@@H]2CCCC[C@@H]2N1; tBuAla = CC(C)(C)C[C@H](N)C(=O)O; Pen = CC(C)(S)[C@H](N)C(=O)O; Orn = NCCC[C@H](N)C(=O)O; PEG2 = NCCOCCOCCC(=O)O; Ahx = NCCCCCC(=O)O

Chain of human MASP2 (O00187 other isoform, or with tags, fused parts or gaps): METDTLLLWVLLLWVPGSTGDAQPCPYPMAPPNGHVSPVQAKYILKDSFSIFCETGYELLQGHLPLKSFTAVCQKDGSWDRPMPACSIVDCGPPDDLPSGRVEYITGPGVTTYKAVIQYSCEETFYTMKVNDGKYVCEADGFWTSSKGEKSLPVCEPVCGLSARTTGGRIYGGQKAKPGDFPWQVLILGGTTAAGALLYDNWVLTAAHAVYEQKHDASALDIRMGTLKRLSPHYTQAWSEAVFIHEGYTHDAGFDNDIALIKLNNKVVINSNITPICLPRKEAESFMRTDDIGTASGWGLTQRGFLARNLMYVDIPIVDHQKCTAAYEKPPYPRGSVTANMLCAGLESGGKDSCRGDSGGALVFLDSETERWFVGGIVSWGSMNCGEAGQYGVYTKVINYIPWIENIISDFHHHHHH

By pIC50 is commonly meant the negative decadic logarithm of the IC50, by convention in mol/L. Consider `CC[C@H](C)[C@@H]1NC(=O)CNC(=O)CCOCCOCCNC(=O)[C@H](CC(=O)O)NC(=O)[C@@H]2CCCN2C(=O)[C@H]([C@@H](C)CC)NC(=O)[C@@H]2CSSC[C@H](NC1=O)C(=O)N[C@@H](CO)C(=O)N[C@@H](CCCNC(=N)N)C(=O)N[C@@H](CO)C(=O)N[C@@H](CC(C)C)C(=O)N1CCC[C@H]1C(=O)N1CCC[C@H]1C(=O)N[C@@H]([C@@H](C)CC)C(=O)N2` [Example 24] (cyclo(CIPD[PEG2]GICSRSLPPI); disulfide 1-8), for which the negative-log IC50 (pIC50) in test [1] was 6.68; in test [2], 6.96.
Taken in the same sequence, the figures for `CC[C@H](C)[C@@H]1NC(=O)[C@H](C)NC(=O)CCC(=O)NCCCOCCOCCOCCCNC(=O)[C@H](CC(=O)O)NC(=O)[C@@H]2CCCN2C(=O)[C@H]([C@@H](C)CC)NC(=O)[C@H]2NC(=O)[C@H]([C@@H](C)CC)NC(=O)[C@@H]3CCCN3C(=O)[C@@H]3CCCN3C(=O)[C@H](CC(C)(C)C)NC(=O)[C@H](CO)NC(=O)[C@H](CCCNC(=N)N)NC(=O)[C@H](CO)NC(=O)[C@H](CSSC2(C)C)NC1=O` [Example 63] (AICSRS[tBuAla]PPI[Pen]IPD; disulfide 3-11; linker N-C via X6) were 6.77 and 7.55.
Take `CC[C@H](C)[C@@H]1NC(=O)CNC(=O)[C@H](CCCN)NC(=O)[C@H]([C@@H](C)CC)NC(=O)[C@H]2NC(=O)[C@H]([C@@H](C)CC)NC(=O)[C@@H]3CCCN3C(=O)[C@@H]3CCCN3C(=O)[C@H](CC(C)(C)C)NC(=O)[C@H](CO)NC(=O)[C@H](CCCNC(=N)N)NC(=O)[C@H](CO)NC(=O)[C@H](CSSC2(C)C)NC1=O` [Example 65, N-{3-[(5aS,11S,14S,17S,20S,23R,26S,32S,35S,38R,41S,43aS)-32-(3-aminopropyl)-26,35,41-tri[(2S)-butan-2-yl]-11-(2,2-dimethylpropyl)-14,20-bis(hydroxymethyl)-44,44-dimethyl-5,10,13,16,19,22,25,28,31,34,37,40,43-tridecaoxodotetracontahydro-5H-23,38-(methanodithiomethano)dipyrrolo[1,2-a:1′,2′-d][1,4,7,10,13,16,19,22,25,28,31,34,37]tridecaazacyclononatriacontin-17-yl]propyl}guanidine] (cyclo(CSRS[tBuAla]PPI[Pen]I[Orn]GI); disulfide 1-9): the pIC50 in test [1] was 6.27; in test [2], 7.31.
Taken in the same sequence, the figures for `CC[C@H](C)[C@@H]1NC(=O)CNC(=O)CCCCCNC(=O)C[C@@H](C(N)=O)NC(=O)[C@@H]2CCCN2C(=O)[C@H]([C@@H](C)CC)NC(=O)[C@H]2NC(=O)[C@H]([C@@H](C)CC)NC(=O)[C@@H]3CCCN3C(=O)[C@@H]3CCCN3C(=O)[C@H](CC(C)(C)C)NC(=O)[C@H](CO)NC(=O)[C@H](CCCNC(=N)N)NC(=O)[C@H](CO)NC(=O)[C@H](CSSC2(C)C)NC1=O` [Example 48] ([Ahx]GICSRS[tBuAla]PPI[Pen]IPD-NH2; disulfide 4-12; lactam N-15) were 7.15 and 8.00.
Regarding `CC[C@H](C)[C@@H]1NC(=O)CNC(=O)[C@@H](N)CCCCNC(=O)[C@H](CC(=O)O)NC(=O)[C@@H]2CCCN2C(=O)[C@H]([C@@H](C)CC)NC(=O)[C@@H]2CSSC[C@H](NC1=O)C(=O)N[C@@H](CO)C(=O)N[C@@H](CCCNC(=N)N)C(=O)N[C@@H](CO)C(=O)N[C@@H](CC(C)C)C(=O)N1CCC[C@H]1C(=O)N1CCC[C@H]1C(=O)N[C@@H]([C@@H](C)CC)C(=O)N2` [Example 22] (H-KGICSRSLPPICIPD; lactam 1-C; disulfide 4-12), the values for the pIC50 in test [1] and in test [2] were 7.04 and 6.72, respectively.
Take `CC[C@H](C)[C@@H]1NC(=O)CNC(=O)CCCCCNC(=O)CC[C@@H](C(N)=O)NC(=O)[C@@H]2CCCN2C(=O)[C@H]([C@@H](C)CC)NC(=O)[C@H]2NC(=O)[C@H]([C@@H](C)CC)NC(=O)[C@@H]3C[C@@H]4CCCC[C@@H]4N3C(=O)[C@@H]3CCCN3C(=O)[C@H](CC(C)C)NC(=O)[C@H](CO)NC(=O)[C@H](CCCNC(=N)N)NC(=O)[C@H](CO)NC(=O)[C@H](CSSC2(C)C)NC1=O` [Example 83] ([Ahx]GICSRSLP[Oic]I[Pen]IPE-NH2; disulfide 4-12; lactam N-15): the pIC50 is 7.04 in test [1] and 7.74 in test [2].
For the molecule `CC[C@H](C)[C@@H]1NC(=O)[C@H](C)NC(=O)CCCCCNC(=O)CC[C@@H](C(N)=O)NC(=O)[C@@H]2CCCN2C(=O)[C@H]([C@@H](C)CC)NC(=O)[C@H]2NC(=O)[C@H]([C@@H](C)CC)NC(=O)[C@@H]3C[C@@H]4CCCC[C@@H]4N3C(=O)[C@@H]3CCCN3C(=O)[C@H](CC(C)C)NC(=O)[C@H](CO)NC(=O)[C@H](CCCNC(=N)N)NC(=O)[C@H](CO)NC(=O)[C@H](CSSC2(C)C)NC1=O` [Example 74] ([Ahx]AICSRSLP[Oic]I[Pen]IPE-NH2; disulfide 4-12; lactam N-15), the values for the negative logarithm of the IC50 (pIC50) in test [1] and in test [2] were 6.80 and 7.85, respectively.
Consider `CC[C@H](C)[C@@H]1NC(=O)CNC(=O)CNC(=O)[C@H](CC(=O)O)NC(=O)[C@@H]2CCCN2C(=O)[C@H]([C@@H](C)CC)NC(=O)[C@@H]2CSSC[C@H](NC1=O)C(=O)N[C@@H](CO)C(=O)N[C@@H](CCCNC(=N)N)C(=O)N[C@@H](CO)C(=O)N[C@@H](CC(C)C)C(=O)N1CCC[C@H]1C(=O)N1CCC[C@H]1C(=O)N[C@@H]([C@@H](C)CC)C(=O)N2` [Example 15, [(6S,9S,12S,15S,18R,21S,30S,32aS,38S,41R,44S,46aS,51aS)-21,38,44-tri[(2S)-butan-2-yl]-12-(3-carbamimidamidopropyl)-9,15-bis(hydroxymethyl)-6-(2-methylpropyl)-5,8,11,14,17,20,23,26,29,32,37,40,43,46,51-pentadecaoxopentacontahydro-1H-18,41-(methanodithiomethano)tripyrrolo[1,2-a:1′,2′-d:1″,2″-p][1,4,7,10,13,16, 19,22,25,28,31,34,37,40,43]pentadecaazacyclopentatetracontin-30-yl]acetic acid] (cyclo(CIPDGGICSRSLPPI); disulfide 1-8), for which the pIC50 was 6.52 in test [1] and 6.92 in test [2].
For the molecule `CC[C@H](C)[C@@H]1NC(=O)[C@H](C)NC(=O)CNC(=O)CCCCCNC(=O)CC[C@@H](C(N)=O)NC(=O)[C@@H]2CCCN2C(=O)[C@H]([C@@H](C)CC)NC(=O)[C@H]2NC(=O)[C@H]([C@@H](C)CC)NC(=O)[C@@H]3C[C@@H]4CCCC[C@@H]4N3C(=O)[C@@H]3CCCN3C(=O)[C@H](CC(C)C)NC(=O)[C@H](CO)NC(=O)[C@H](CCCNC(=N)N)NC(=O)[C@H](CO)NC(=O)[C@H](CSSC2(C)C)NC1=O` [Example 82] ([Ahx]GAICSRSLP[Oic]I[Pen]IPE-NH2; disulfide 5-13; lactam N-16), the pIC50 in test [1] was 6.15; in test [2], 7.16.
Taken in the same sequence, the figures for `CC[C@H](C)[C@@H]1NC(=O)[C@H](C)NC(=O)CCOCCOCCNC(=O)[C@H](CC(=O)O)NC(=O)[C@@H]2CCCN2C(=O)[C@H]([C@@H](C)CC)NC(=O)[C@H]2NC(=O)[C@H]([C@@H](C)CC)NC(=O)[C@@H]3CCCN3C(=O)[C@@H]3CCCN3C(=O)[C@H](CC(C)(C)C)NC(=O)[C@H](CO)NC(=O)[C@H](CCCNC(=N)N)NC(=O)[C@H](CO)NC(=O)[C@H](CSSC2(C)C)NC1=O` [Example 34] (cyclo(AICSRS[tBuAla]PPI[Pen]IPD[PEG2]); disulfide 3-11) were 7.01 and 7.96.
